These results are taken from PMC4741889, “Ligand-based chemoinformatic discovery of a novel small molecule inhibitor targeting CDC25 dual specificity phosphatases and displaying in vitro efficacy against melanoma cells” (Oncotarget, 2015).

Test [1] concerns the target T1, CDC25B (Homo sapiens, UniProt P30305).
T1 construct: Recombinant forms of the catalytic domains of CDC25A, -B and -C were obtained through the vectors pET28a-CDC25A-cd, pET28a-CDC25B-cd and pET28a-CDC25C-cd; made in house
T1 sequence (P30305 431-538 limits assumed): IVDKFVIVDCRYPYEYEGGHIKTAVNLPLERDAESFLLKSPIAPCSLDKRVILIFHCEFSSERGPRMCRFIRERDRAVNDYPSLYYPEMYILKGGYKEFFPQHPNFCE
The test can be described thus: Residual phosphatase activity of recombinant CDC25B, fluorimetric OMFP assay. The class given is biochemical. To be noted: 10 nM CDC25B, 25 μM OMFP, read-out: CDC25B residual activity (%) in the presence of [inhibitor]. As for the experimental part:
Among the twenty-five structures identified from the multiple ligand-based chemoinformatic approach, eight compounds (2, 10, 12–14, and 16–18) were excluded from the analysis, because endowed with a strong fluorescent signal, which interfered with the emission wavelength of the synthetic substrate 3-O-methylfluorescein phosphate (OMFP) used in the fluorimetric assay. The inhibition of the phosphatase activity of CDC25B by the remaining seventeen analogs was evaluated in the presence of two different concentrations of these compounds (Table 2). […] For this reason, only one of these latter compounds, i.e. 3, was included in the following analysis.
The enzymatic activity of the catalytic domains of CDC25A, -B and -C were determined through a fluorimetric method, which monitored the dephosphorylation of the synthetic substrate OMFP, essentially as previously described. In steady-state enzyme kinetic studies, the residual phosphatase activity of purified recombinant CDC25B was measured at 30°C in the presence of different concentrations of the various inhibitors, using a computer-assisted Cary Eclipse spectrofluorimeter (Varian) equipped with an electronic temperature controller. Excitation and emission wavelengths were set at 485 and 530 nm, respectively; both excitation and emission slits were set at 10 nm. The reaction mixture contained 10 nM CDC25B and different concentrations of the various inhibitors in 500 μL final volume of 20 mM Tris-HCl, pH 7.8, 1 mM DTT. DMSO was used as vehicle control. The reaction started by the addition of 25 μM OMFP, and the formation of the fluorescent product o-methylfluorescein was monitored continuously. The rate of OMFP hydrolysis was expressed as arbitrary units per min (a.u./min). The comparison of the rates determined in the absence and in the presence of the various inhibitors allowed the calculation of the residual phosphatase activity, expressed as a percentage.

For test [2], the system named is K562 leukaemia cancer cell line. The arrangement: method as in PMID 22524450. As to conditions: cited from earlier work.
The subject of test [3] is A2058 cells. The test is described as follows: MTT cell growth rate, A2058 melanoma cells. The format is cell-based, human. To be noted: A2058, 100 μM, 48 h, MTT. As for the experimental part:
(§1) The human melanoma cell line A2058, kindly provided by CEINGE (Naples, Italy), and SAN cells were derived from lymph nodal metastases and grown in DMEM and RPMI 1640, respectively, supplemented with 10% FBS, 2 mM L-glutamine, 100 IU/mL penicillin G, and 100 μg/mL streptomycin in humidified incubator at 37°C under 5% CO2 atmosphere. All cells were split and seeded every three days and used during the exponential phase of growth. Cell treatments were always carried after 24 h from plating.
(§2) The MTT assay was used to detect cell proliferation essentially as previously described. Briefly, A2058 and SAN cells were plated in 96-well microtiter plates (100 μL/well) at 4000 and 6000 cells/well, respectively. After 24-h seeding, cells were treated with the selected compounds added at 25, 50 or 100 μM concentration, or with 0.5% (v/v) DMSO as a vehicle control. After 24-h, 48-h or 72-h treatment, and upon the addition of 10 μL of MTT solution in the dark, the plate was incubated for 3 h at 37°C under CO2 atmosphere. After medium aspiration and solubilization of formazan crystals, absorbance was measured at 570 nm, using an ELISA plate reader (Bio-Rad, Milano, Italy).

Test [4] relates to SAN cells. The test is described as follows: MTT cell growth rate, SAN melanoma cells. The class given is cell-based, human. To be noted: 100 μM, 72 h, MTT (not shown). As for the experimental part: as §1, §2
In test [5] the test system is PC-3 prostate cancer cell line. Set-up: method as in PMID 22524450. To be noted: cited from earlier work.
Test [6] deals with MCF-7 breast cancer cell line. Set-up: method as in PMID 22524450. To be noted: cited from earlier work.
The target in test [7] is T2, CDC25C (Homo sapiens, UniProt P30307).
T2 construct: Recombinant forms of the catalytic domains of CDC25A, -B and -C were obtained through the vectors pET28a-CDC25A-cd, pET28a-CDC25B-cd and pET28a-CDC25C-cd; made in house
T2 sequence (P30307 321-428 limits assumed): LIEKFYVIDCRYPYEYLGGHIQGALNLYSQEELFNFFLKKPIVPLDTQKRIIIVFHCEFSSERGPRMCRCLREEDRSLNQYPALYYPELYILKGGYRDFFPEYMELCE
The test can be described thus: Ki from OMFP hydrolysis kinetics (Lineweaver-Burk), CDC25C. As to conditions: 40 nM CDC25C, 1–25 μM OMFP; mean ± S.E.; read-out: Ki CDC25C. The format is biochemical. As for the experimental part:
To measure the inhibition constant (Ki) of the recombinant forms of CDC25A, -B and -C towards the various inhibitors, the affinity of the different forms of CDC25 towards OMFP was measured either in the absence or in the presence of fixed concentrations of the various inhibitors. The reaction mixture contained 20 nM CDC25A, or 10 nM CDC25B, or 40 nM CDC25C, and different concentrations of the various inhibitors in 500 μL final volume of 20 mM Tris-HCl, pH 7.8, 1 mM DTT. DMSO was used as vehicle control. […] The corresponding Lineweaver-Burk plots allowed the calculation of the KM for OMFP and of the Vmax of OMFP hydrolysis, expressed as a.u./minmax. […] The Ki values were obtained from the decrease of a.u./minmax in the presence of the inhibitor, according to the equation a.u./mimmax’ = a.u./mimmax/{1 + ([I]/Ki)}, where a.u./mimmax’ represents the Vmax measured in the presence of the concentration [I] of the inhibitor. The Ki values were obtained from at least three independent experiments and reported as mean ± S.E.

In test [8] the test system is SAN cells. The test is described as follows: Intracellular ROS level (DCFH-DA), SAN cells. The format is cell-based, human. To be noted: SAN cells not treated with 7, 0.5 mM apocynin. Here is the method: The high redox reactivity of quinonoid molecules, like compound 7, could greatly perturb the intracellular redox state. […] The oxidant effect of 7 was also evaluated after cell pre-treatment with two antioxidant molecules, such as N-acetyl-cysteine (NAC) and the specific inhibitor of NADPH oxidase, apocynin. To this aim, A2058 and SAN cells were pre-incubated for 1 h with 10 mM NAC or 45 min with 0.5 mM apocynin and then treated for 4 h with 100 μM compound 7. […] The cytotoxic activity of 7 could be mediated by the observed increase of ROS level.
The intracellular ROS level was monitored using the oxidation-sensitive fluorescence probe DCFH-DA. Cells were seeded into 6-well-plates (3 × 10^5 cells/plate) for 24 h at 37°C and then treated at various times with 100 μM compound 7 or 0.5% DMSO. DCFH-DA was added in the dark at 10 μM final concentration 30-min before the end of each incubation; then, cells were collected, washed in PBS, and finally resuspended in 500 μL PBS for fluorimetric analysis. Measurements were realized in a Cary Eclipse fluorescence spectrophotometer (Varian); excitation and emission wavelengths were set at 485 nm and 530 nm, respectively; both excitation and emission slits were set at 10 nm. The effect of 7 on ROS production was also estimated after pretreatment of cells with 10 mM NAC for 1 h.
Supplementary Figure S5: ROS production and their involvement in the apoptotic process of SAN cells, as induced by treatment with compound 7. A. Time-dependent measurement of ROS production. Cells were incubated with 0.5% DMSO (open bars) or 100 μM compound 7 (black bars) and then the intracellular ROS level was measured. B. Effect of antioxidant molecules on ROS production. The ROS level was also measured in cells untreated or pretreated with NAC or apocynin after a 4-h incubation with DMSO or 7. C. Effect of NAC on apoptosis. The PI incorporation was evaluated in cells untreated or pretreated with NAC after a 48-h incubation with DMSO or 7. ROS production was expressed as a.u., and apoptosis as a percentage. […]

What is called Ki is a measure of affinity in units of concentration, obtained from inhibition or displacement.

With `O=C(O)CCc1c2ccc(=O)c(O)c-2oc2c(O)c(O)ccc12` [NSC 119915, reference compound], the remaining activity at 0.2 µM in test [1] (0.2 μM inhibitor) was 38%. Besides, the remaining activity at 1 µM in test [1] (1 μM inhibitor) is 2%. The “growth of cancer cell line” value in test [2], in test [5] and in test [6] was “significantly inhibited the growth” each time. Besides, the values for the cell growth rate result in test [3] and in test [4] were “quite ineffective or caused a not significant reduction of cell growth rate” and “significant reduction of cell growth rate”, respectively. Besides, the Ki in test [7] was 240 ± 130 nM.

In the case of `COc1cc(C(C)=O)ccc1O` [apocynin, reference compound], the “basal intracellular redox state” value in test [8] is given as “raised the basal intracellular redox state”.
